Results taken from patent publication US20100255580A1, “Differentiation of Human Embryonic Stem Cells” (LIFESCCAN, INC., priority 2007, published 2010).

Test system: H9 embryonic stem cells
Type: cell-based, human
Experimental: Controls for each group included cells plated on […]-coated dishes and cultured in MEF-conditioned medium or cells plated on MEFs and cultured in ES medium. All groups contained three biological replicates and each biological replicate was repeated on two separate gene chips.
Sample preparation, hybridization, and image analysis were performed according to the Affymetrix Human Genome U133 Plus 2.0 Array. Following normalization and a log transformation, data analysis was performed using OmniViz® software (MA) and […] (VizXLabs, WA). Significant differences in gene expression between the samples were evaluated using analysis of variance and an F-test with adjusted P-value (Benjamini and
Hochberg correction) of ≦b 0.05. Only genes with a present call in at least one group were included in the analysis.

[1] = DE treatment in low serum, on MEFS

Activin A: a member of the TGFβ superfamily; R&D Systems; Group 2 = Activin A (100 ng/ml)
mean normalized intensity (log format), gene: Homo sapiens methyl-CpG binding protein MBD2 (MBD2) mRNA, complete cds. [1]: −1.702
mean normalized intensity (log format), gene: Homo sapiens tachykinin, precursor 1 (TAC1), transcript variant beta, mRNA. [1]: 1.483
mean normalized intensity (log format), gene: Homo sapiens testis expressed sequence 14 (TEX14), mRNA. [1]: −1.3824
mean normalized intensity (log format), gene: Homo sapiens, Similar to LIM homeobox protein 8, clone IMAGE: 4839343, mRNA. [1]: −1.11
mean normalized intensity (log format), gene: Homo sapiens, Similar to cadherin 6, type 2, K-cadherin (fetal kidney), clone MGC: 1470, mRNA, complete cds. [1]: 2.134
mean normalized intensity (log format), gene: Homo sapiens, Similar to hypothetical protein FLJ10058, clone MGC: 34305 IMAGE: 5167647, mRNA, complete cds. [1]: 0.2156
mean normalized intensity (log format), gene: Homo sapiens, Similar to hypothetical protein FLJ32001, clone MGC: 39559 IMAGE: 4828136, mRNA, complete cds. [1]: 1.269
mean normalized intensity (log format), gene: Homo sapiens, clone IMAGE: 4067166, mRNA [1]: 0.277
mean normalized intensity (log format), gene: Homo sapiens, clone IMAGE: 4828836, mRNA. [1]: −1.484
mean normalized intensity (log format), gene: Homo sapiens, serine (or cysteine) proteinase inhibitor, clade B (ovalbumin), member 3, clone MGC: 12244, mRNA, complete cds. [1]: −1.566
mean normalized intensity (log format), gene: Human mRNA upregulated during camptothecin-induced apoptosis of U937 cells. [1]: −0.1892
mean normalized intensity (log format), gene: Human platelet-derived growth factor alpha-receptor (PDGFRA) mRNA, exons 13-16 [1]: 2.905
mean normalized intensity (log format), gene: KIAA1151 protein [1]: 1.009
mean normalized intensity (log format), gene: caldesmon 1 [1]: 5.634
mean normalized intensity (log format), gene: nuclear receptor subfamily 1, group I, member 3 [1]: −0.1968
mean normalized intensity (log format), gene: paternally expressed 3 (r2033) [1]: −0.0118
mean normalized intensity (log format), gene: paternally expressed 3 (r2093) [1]: −3.492
log intensity, AD036 mRNA (low serum, on MATRIGEL): −0.5033
log intensity, ADP-ribosylation factor 4-like (ARF4L) (low serum, on MATRIGEL): 1.635
log intensity, BACE mRNA for beta-site APP cleaving enzyme I-476 (low serum, on MATRIGEL): 0.4855
log intensity, BTB (POZ) domain containing 2 (BTBD2) (low serum, on MATRIGEL): 1.101
log intensity, CXCR4 gene encoding receptor CXCR4 (low serum, on MATRIGEL): 3.111
log intensity, Cluster Incl. AB002344: Human mRNA for KIAA0346 gene (r901) (low serum, on MATRIGEL): 2.157
log intensity, Cluster Incl. AB002344: Human mRNA for KIAA0346 gene (r941) (low serum, on MATRIGEL): 1.896
log intensity, Cluster Incl. L37033: Human FK-506 binding protein homologue (FKBP38) (low serum, on MATRIGEL): 0.6156
log intensity, Cluster Incl. N80935: zb07g06.s1 Homo sapiens cDNA (low serum, on MATRIGEL): 2.124
log intensity, ESTs (r403) (low serum, on MATRIGEL): 0.7843
log intensity, ESTs (r404) (low serum, on MATRIGEL): −1.263
log intensity, ESTs (r405) (low serum, on MATRIGEL): −1.717
log intensity, ESTs (r442) (low serum, on MATRIGEL): 2.774
log intensity, ESTs (r453) (low serum, on MATRIGEL): −1.637
log intensity, ESTs (r473) (low serum, on MATRIGEL): −0.04834
log intensity, ESTs (r491) (low serum, on MATRIGEL): −1.344
log intensity, ESTs (r522) (low serum, on MATRIGEL): −0.8015
log intensity, ESTs (r523) (low serum, on MATRIGEL): −2.576
log intensity, ESTs (r524) (low serum, on MATRIGEL): 0.4996
log intensity, ESTs (r556) (low serum, on MATRIGEL): −0.1206
log intensity, ESTs (r567) (low serum, on MATRIGEL): −2.015
log intensity, ESTs (r627) (low serum, on MATRIGEL): 2.542
log intensity, ESTs (r741) (low serum, on MATRIGEL): −0.004009
log intensity, ESTs (r745) (low serum, on MATRIGEL): 1.386
log intensity, ESTs (r766) (low serum, on MATRIGEL): 1.047
log intensity, ESTs (r767) (low serum, on MATRIGEL): −1.485
log intensity, ESTs (r891) (low serum, on MATRIGEL): −2.079
log intensity, ESTs (r916) (low serum, on MATRIGEL): −0.1464
log intensity, ESTs (r938) (low serum, on MATRIGEL): −1.246
log intensity, ESTs (r980) (low serum, on MATRIGEL): −0.1842
log intensity, ESTs (r1021) (low serum, on MATRIGEL): −0.4037
log intensity, ESTs (r1022) (low serum, on MATRIGEL): 2.144
log intensity, ESTs (r1059) (low serum, on MATRIGEL): 0.7835
log intensity, ESTs (r1060) (low serum, on MATRIGEL): 1.175
log intensity, ESTs (r1110) (low serum, on MATRIGEL): 0.533
log intensity, ESTs (r1115) (low serum, on MATRIGEL): −1.164
log intensity, ESTs, Highly similar to AF229172 1 class III myosin (low serum, on MATRIGEL): −0.4755
log intensity, ESTs, Moderately similar to ALU4_HUMAN ALU SUBFAMILY SB2 (low serum, on MATRIGEL): −1.104
log intensity, ESTs, Moderately similar to JC4969 pig-c protein (low serum, on MATRIGEL): −2.397
log intensity, ESTs, Moderately similar to NFY-C (low serum, on MATRIGEL): −0.7494
log intensity, ESTs, Weakly similar to A46302 PTB-associated splicing factor, long form (low serum, on MATRIGEL): 0.8941
log intensity, ESTs, Weakly similar to ALU8_HUMAN ALU SUBFAMILY SX (low serum, on MATRIGEL): 2.766
log intensity, ESTs, Weakly similar to ALUC_HUMAN (low serum, on MATRIGEL): 1.08
log intensity, ESTs, Weakly similar to ALUF_HUMAN (low serum, on MATRIGEL): −1.032
log intensity, ESTs, Weakly similar to KIAA1330 protein (low serum, on MATRIGEL): −0.9252
log intensity, ESTs, Weakly similar to KIAA1399 protein (low serum, on MATRIGEL): −0.8312
log intensity, ESTs, Weakly similar to T32252 hypothetical protein T15B7.2 (low serum, on MATRIGEL): 2.21
log intensity, ESTs, Weakly similar to Z132_HUMAN ZINC FINGER PROTEIN 13 (low serum, on MATRIGEL): 1.049
log intensity, F37Esophageal cancer-related gene-coding leucine-zipper motif (FEZ1) (low serum, on MATRIGEL): −0.1288
log intensity, FLICE-like inhibitory protein short form (low serum, on MATRIGEL): 0.1358
log intensity, GS1999full mRNA (low serum, on MATRIGEL): 0.137
log intensity, H1 histone family, member X (H1FX) (low serum, on MATRIGEL): 3.217
